Entries after “also recorded” stand apart in the source; their conditions may differ.
What was measured:
[1] = target: PIM1 (Homo sapiens, UniProt P11309); test: Kinase profiling; assay type: biochemical; conditions: 10 semi-logarithmic dilutions from 50 μM, singlicate
[2] = test system: MDA-MB-231-derived xenografts; test: Tumor xenografts; assay type: in vivo, Athymic nude mice; conditions: 100 mg/Kg intraperitoneally twice per week, two weeks; for phospho-RB levels in the xenografts: FIG. 9A; for tumor weight / tumor growth: vs DMSO; for tumor weight: FIG. 8A; for tumor growth: FIG. 8B
Procedure: For histological analysis, mice tissues and human xenografts were fixed in 10%-buffered formalin (Sigma) and embedded in paraffin wax. Sections of 3- or 5-μm thickness were stained with haematoxylin and eosin. Additional immunohistochemical examination was performed using a specific antibody against phospho-Rb (Ser807/811; Cell Signaling) or Ki67 (DAKO).
DMSO, PS004, PS006 and PS009 were diluted in sesame oil and administered intraperitoneally twice per week during two weeks at 100 mg/Kg. […] Tumor growth was monitored using caliper measurements and tumor size was estimated using the following formula: Tumor volume (mm^3)=d^2·D/2 where d and D, are the shortest and longest diameter in mm, respectively. After completing the treatment, mice were sacrificed and tumors were extracted, weighed, and fixed for histological analysis.
The therapeutic effect of the subject compounds was then tested by treating mice previously injected subcutaneously with MDA-MB-231 breast cancer cells. […] The dose amount of 100 mg/kg dosage in these cases was administered at a frequency of two injections per week for the total of two weeks of treatment.

[3] = target: CDK8/CycC (Homo sapiens, UniProt P49336); test: Kinase profiling; assay type: biochemical; conditions: 10 semi-logarithmic dilutions from 50 μM, singlicate
[4] = target: CDK3/CycC (Homo sapiens, UniProt Q00526); test: Kinase profiling; assay type: biochemical; conditions: 10 semi-logarithmic dilutions from 50 μM, singlicate
CDK3/CycC, sequence (Q00526 whole entry): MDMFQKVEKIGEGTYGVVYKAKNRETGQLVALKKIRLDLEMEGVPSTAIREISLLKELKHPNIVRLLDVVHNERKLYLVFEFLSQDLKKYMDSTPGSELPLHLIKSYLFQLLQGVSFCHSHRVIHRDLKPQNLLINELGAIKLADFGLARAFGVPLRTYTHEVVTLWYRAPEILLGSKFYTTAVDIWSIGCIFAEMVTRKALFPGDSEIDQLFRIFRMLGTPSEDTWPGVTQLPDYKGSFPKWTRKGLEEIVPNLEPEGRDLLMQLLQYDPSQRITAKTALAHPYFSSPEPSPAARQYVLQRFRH
CDK3/CycC, sequence (P24863 whole entry partner): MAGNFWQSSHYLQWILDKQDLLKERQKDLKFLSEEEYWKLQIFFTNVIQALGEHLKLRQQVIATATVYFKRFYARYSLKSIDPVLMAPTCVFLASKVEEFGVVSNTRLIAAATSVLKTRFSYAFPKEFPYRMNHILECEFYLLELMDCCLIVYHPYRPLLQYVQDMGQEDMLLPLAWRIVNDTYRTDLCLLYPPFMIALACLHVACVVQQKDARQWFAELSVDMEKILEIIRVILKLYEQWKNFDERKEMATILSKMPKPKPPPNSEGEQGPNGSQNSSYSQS

[5] = Thermodynamic solubility (pH 7.4); assay type: physicochemical; conditions: pH 7.4, aqueous buffer, thermodynamic from solid
[6] = target: CDK2/CycA2 (Homo sapiens, UniProt P24941); test: Kinase profiling; assay type: biochemical; conditions: 10 semi-logarithmic dilutions from 50 μM, singlicate
[7] = target: CDK4/CycD3 (Homo sapiens, UniProt P11802); test: Kinase profiling; assay type: biochemical; conditions: 10 semi-logarithmic dilutions from 50 μM, singlicate
[8] = target: ERK1 (Homo sapiens, UniProt P27361); test: Kinase profiling; assay type: biochemical; conditions: 10 semi-logarithmic dilutions from 50 μM, singlicate
ERK1, sequence (P27361 whole entry): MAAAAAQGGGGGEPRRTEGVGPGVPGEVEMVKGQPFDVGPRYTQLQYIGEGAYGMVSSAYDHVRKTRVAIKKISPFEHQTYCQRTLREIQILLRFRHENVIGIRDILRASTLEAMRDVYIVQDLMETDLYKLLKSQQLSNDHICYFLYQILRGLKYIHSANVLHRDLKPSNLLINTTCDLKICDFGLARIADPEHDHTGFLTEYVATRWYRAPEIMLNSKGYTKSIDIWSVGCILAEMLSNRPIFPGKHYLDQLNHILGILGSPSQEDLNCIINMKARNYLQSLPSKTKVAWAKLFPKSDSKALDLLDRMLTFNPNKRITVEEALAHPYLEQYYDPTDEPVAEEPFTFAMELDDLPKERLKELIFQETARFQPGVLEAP

[9] = target: CDK6/CycD3 (Homo sapiens, UniProt Q00534); test: Kinase profiling; assay type: biochemical; conditions: 10 semi-logarithmic dilutions from 50 μM, singlicate
[10] = target: CDK5/p35NCK (Homo sapiens, UniProt Q00535); test: Kinase profiling; assay type: biochemical; conditions: 10 semi-logarithmic dilutions from 50 μM, singlicate
[11] = test system: pRB-wild-type and pRB-deficient glioblastoma cells (U87MG, SW1783); test: GI50 compared in pRB-wild-type and pRB-deficient cells; assay type: cell-based, human; conditions: comparison of GI50, Table 4
Procedure: […]. Cell counts were determined by the Opera software (Perkin Elmer) and data were further processed with SPSS software. GI50 was calculated by estimating the absolute IC50 using dose-response inhibition tool in Prism6 (Graphpad Software Inc.).
CDK4/6 kinases drive cell cycle progression by phosphorylating the retinoblastoma protein (pRB), thus, releasing its repressive activity on transcription. Accordingly, CDK4/6 specific inhibitors are inefficient in pRB-deficient cells, as cell cycle transcription is induced with independence of CDK4/6 activity. The subject compounds were therefore evaluated to what extent depend on the presence of a functional pRB. Two pairs of human cancer cell lines representing pRB-wild-type and pRB-deficient breast cancer and glioblastoma were tested. […].

[12] = Metabolic stability in hepatocytes; assay type: in vitro ADME; conditions: mouse, 60-90 min test; for hepatocyte CLint: read-out: Metabolic stability, Mouse heptocytes: Clearance; for half-life: read-out: Metabolic stability, Mouse heptocytes: t1/2
[13] = target: CDK6/CycD1 (Homo sapiens, UniProt Q00534); test: Kinase profiling; assay type: biochemical; conditions: 10 semi-logarithmic dilutions from 50 μM, singlicate
[14] = Metabolic stability in microsomes; assay type: in vitro ADME; conditions: mouse, 60-90 min test; for microsomal CLint: read-out: Metabolic stability, Mouse microsomes: Clearance; for half-life: read-out: Metabolic stability, Mouse microsomes: t1/2
[15] = target: CDK12wt/CycK (Homo sapiens, UniProt Q9NYV4); test: Kinase profiling; assay type: biochemical; conditions: 10 semi-logarithmic dilutions from 50 μM, singlicate
CDK12wt/CycK, sequence (Q9NYV4 whole entry): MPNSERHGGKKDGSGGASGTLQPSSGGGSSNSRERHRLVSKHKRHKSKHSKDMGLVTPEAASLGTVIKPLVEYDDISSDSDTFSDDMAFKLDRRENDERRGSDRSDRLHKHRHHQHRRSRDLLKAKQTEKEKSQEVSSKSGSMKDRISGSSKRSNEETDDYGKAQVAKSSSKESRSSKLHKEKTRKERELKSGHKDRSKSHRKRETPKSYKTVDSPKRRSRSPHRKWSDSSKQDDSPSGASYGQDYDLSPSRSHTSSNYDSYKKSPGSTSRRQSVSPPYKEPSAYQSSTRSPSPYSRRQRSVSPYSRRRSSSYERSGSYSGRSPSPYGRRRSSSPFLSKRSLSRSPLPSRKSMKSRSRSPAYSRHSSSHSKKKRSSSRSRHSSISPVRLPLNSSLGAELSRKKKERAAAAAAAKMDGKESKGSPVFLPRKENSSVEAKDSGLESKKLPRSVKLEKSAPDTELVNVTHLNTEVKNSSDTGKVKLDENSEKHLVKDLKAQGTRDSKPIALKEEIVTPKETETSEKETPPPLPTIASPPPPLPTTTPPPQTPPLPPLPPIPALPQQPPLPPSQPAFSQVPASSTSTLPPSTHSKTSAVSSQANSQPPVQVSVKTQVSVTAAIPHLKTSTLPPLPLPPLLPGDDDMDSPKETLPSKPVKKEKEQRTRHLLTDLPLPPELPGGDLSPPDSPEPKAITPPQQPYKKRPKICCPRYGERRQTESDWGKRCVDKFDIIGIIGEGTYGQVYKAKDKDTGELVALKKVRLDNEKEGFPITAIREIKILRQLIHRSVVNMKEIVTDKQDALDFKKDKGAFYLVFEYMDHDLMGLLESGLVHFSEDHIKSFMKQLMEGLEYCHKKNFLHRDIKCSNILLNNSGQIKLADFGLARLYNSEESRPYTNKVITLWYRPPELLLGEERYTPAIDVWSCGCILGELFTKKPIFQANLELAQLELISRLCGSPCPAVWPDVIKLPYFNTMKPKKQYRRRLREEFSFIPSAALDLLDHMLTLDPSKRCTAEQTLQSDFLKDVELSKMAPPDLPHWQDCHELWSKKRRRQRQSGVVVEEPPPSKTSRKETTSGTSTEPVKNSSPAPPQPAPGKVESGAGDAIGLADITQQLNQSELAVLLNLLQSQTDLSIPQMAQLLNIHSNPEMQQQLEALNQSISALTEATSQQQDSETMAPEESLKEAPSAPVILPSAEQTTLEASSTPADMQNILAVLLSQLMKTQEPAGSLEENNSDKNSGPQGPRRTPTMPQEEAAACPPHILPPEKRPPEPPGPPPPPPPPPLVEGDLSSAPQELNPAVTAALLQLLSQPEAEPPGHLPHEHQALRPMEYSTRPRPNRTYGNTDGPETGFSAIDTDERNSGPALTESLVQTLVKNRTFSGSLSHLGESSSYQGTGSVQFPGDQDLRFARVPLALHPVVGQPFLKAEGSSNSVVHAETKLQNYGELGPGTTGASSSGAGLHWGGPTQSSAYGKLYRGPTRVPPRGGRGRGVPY
CDK12wt/CycK, sequence (O75909 whole entry partner): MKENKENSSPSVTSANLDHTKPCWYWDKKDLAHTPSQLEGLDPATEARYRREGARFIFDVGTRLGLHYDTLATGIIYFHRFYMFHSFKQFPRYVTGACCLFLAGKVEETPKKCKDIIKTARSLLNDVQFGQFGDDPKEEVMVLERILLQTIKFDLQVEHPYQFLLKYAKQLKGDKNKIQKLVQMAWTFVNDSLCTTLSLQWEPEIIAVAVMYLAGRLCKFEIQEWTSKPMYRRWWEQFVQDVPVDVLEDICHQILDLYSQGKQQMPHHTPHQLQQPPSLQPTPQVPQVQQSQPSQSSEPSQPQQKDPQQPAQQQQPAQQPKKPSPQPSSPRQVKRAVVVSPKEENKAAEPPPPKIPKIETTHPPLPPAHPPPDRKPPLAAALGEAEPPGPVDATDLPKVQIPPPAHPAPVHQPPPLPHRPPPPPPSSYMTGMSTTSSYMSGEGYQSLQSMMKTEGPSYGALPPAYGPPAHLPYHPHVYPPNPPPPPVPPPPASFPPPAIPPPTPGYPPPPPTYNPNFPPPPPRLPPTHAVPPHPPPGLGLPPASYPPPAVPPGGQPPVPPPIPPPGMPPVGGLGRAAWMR

[16] = target: HIPK2 (Homo sapiens, UniProt Q9H2X6); test: Kinase profiling; assay type: biochemical; conditions: 10 semi-logarithmic dilutions from 50 μM, singlicate; read-out: IC50 HIPK2
HIPK2, sequence (Q9H2X6 whole entry): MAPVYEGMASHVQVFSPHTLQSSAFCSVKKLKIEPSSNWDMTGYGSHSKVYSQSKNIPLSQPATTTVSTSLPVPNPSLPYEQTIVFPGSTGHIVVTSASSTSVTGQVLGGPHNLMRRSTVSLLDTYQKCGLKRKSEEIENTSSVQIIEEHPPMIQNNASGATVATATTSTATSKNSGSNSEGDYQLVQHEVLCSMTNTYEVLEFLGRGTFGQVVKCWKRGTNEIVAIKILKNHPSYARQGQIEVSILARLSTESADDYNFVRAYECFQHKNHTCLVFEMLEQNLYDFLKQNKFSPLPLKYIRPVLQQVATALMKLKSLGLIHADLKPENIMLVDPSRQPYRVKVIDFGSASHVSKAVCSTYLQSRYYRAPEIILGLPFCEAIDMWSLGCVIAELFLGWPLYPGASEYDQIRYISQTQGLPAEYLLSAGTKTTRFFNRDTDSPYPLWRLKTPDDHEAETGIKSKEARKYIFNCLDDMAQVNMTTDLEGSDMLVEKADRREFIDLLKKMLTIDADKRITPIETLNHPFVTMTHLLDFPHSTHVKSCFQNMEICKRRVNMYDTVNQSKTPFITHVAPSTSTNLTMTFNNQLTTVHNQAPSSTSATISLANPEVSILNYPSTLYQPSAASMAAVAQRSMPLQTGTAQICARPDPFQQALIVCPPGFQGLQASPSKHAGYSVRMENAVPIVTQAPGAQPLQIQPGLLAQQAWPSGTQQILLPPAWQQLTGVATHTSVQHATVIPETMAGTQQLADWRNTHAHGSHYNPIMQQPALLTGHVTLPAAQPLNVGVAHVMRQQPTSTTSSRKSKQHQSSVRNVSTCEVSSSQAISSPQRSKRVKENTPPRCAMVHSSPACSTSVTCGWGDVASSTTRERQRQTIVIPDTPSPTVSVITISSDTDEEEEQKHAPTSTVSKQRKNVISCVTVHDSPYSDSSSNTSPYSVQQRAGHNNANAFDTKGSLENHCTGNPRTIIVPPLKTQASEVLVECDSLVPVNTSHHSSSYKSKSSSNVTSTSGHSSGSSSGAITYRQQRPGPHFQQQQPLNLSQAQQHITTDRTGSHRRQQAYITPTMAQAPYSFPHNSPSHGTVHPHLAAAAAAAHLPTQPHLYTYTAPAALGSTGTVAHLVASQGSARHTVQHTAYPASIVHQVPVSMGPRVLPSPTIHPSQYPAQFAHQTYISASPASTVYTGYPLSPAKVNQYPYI

[17] = test system: panel of 27 kinases (CDK family members); test: Kinase profiling, results in words; assay type: biochemical; conditions: from Table 1
[18] = Summary of solubility, metabolic stability and permeability
[19] = target: CDK7/CycH/MAT1 (Homo sapiens, UniProt P50613); test: Kinase profiling; assay type: biochemical; conditions: 10 semi-logarithmic dilutions from 50 μM, singlicate
[20] = target: CDK5/p25NCK (Homo sapiens, UniProt Q00535); test: Kinase profiling; assay type: biochemical; conditions: 10 semi-logarithmic dilutions from 50 μM, singlicate
[21] = target: CDK9/CycK (Homo sapiens, UniProt P50750); test: Kinase profiling; assay type: biochemical; conditions: 10 semi-logarithmic dilutions from 50 μM, singlicate
[22] = test system: Caco-2 cells; test: Permeability Caco-2 cells; assay type: in vitro ADME
[23] = Permeability Caco-2 cells; assay type: in vitro ADME; conditions: human, Caco-2
[24] = target: CDK1/CycA2 (Homo sapiens, UniProt P06493); test: Kinase profiling; assay type: biochemical; conditions: 10 semi-logarithmic dilutions from 50 μM, singlicate
[25] = target: CDK3/CycE1 (Homo sapiens, UniProt Q00526); test: Kinase profiling; assay type: biochemical; conditions: 10 semi-logarithmic dilutions from 50 μM, singlicate
CDK3/CycE1, sequence (Q00526 whole entry): as the sequence (Q00526 whole entry) above
CDK3/CycE1, sequence (P24864 whole entry partner): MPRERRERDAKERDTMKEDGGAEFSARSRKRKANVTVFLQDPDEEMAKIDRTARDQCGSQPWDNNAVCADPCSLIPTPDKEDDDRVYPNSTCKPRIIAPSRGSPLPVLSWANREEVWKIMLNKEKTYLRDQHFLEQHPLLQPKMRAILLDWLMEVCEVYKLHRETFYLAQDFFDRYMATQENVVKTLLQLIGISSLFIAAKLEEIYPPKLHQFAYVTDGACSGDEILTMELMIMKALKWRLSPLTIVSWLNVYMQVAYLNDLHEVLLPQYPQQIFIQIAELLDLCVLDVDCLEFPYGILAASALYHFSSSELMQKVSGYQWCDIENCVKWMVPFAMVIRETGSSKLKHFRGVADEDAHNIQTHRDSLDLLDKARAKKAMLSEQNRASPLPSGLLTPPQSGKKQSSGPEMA

Row | Structure (SMILES) | IC50 [1] | phospho-RB levels in the xenografts [2] | tumor weight [2] | tumor growth [2] | IC50 [3] | IC50 [4] | IC50 [6] | IC50 [7] | IC50 [8] | IC50 [9] | IC50 [10] | IC50 [13] | IC50 [15] | IC50 [16] | kinase affinity profile [17] | IC50 [19] | IC50 [20] | IC50 [21] | IC50 [24] | IC50 [25] | further results
1 | CC(=O)c1c(C)c2cnc(Nc3ccc(N4CCC(CCCO)CC4)cc3)nc2n(C2CCCC2)c1=O [PS009, 6-acetyl-8-cyclopentyl-2-((4-(4-(3-hydroxypropyl)piperidin-1-yl)phenyl)amino)-5-methylpyrido[2,3-d]pyrimidin-7(8H)-one] | > 50000 nM | reduction of phospho-Rb phosphorylation which however did not reach statistical significance | did not exert any antitumoral effect | did not exert any antitumoral effect | > 50000 nM | 7660 nM | 768 nM | 55.4 nM | 48900 nM | 125 nM | 1860 nM | 13 nM | 17400 nM | > 50000 nM | mainly bound to CDK4/6/ with also an interesting preference for CDK2 and CDK9 | 30800 nM | 4850 nM | 56 nM | > 50000 nM | 17100 nM | solubility thermodynamic [5]: < 2 µM; efficiency in pRB-deficient versus pRB-wild-type glioblastoma cells [11]: equally efficient; hepatocyte CLint [12]: 67.8 µL/min/1e6 cells; half-life [12]: 20.4 min; microsomal CLint [14]: 46.9 µL/min/mg; half-life [14]: 29.5 min; additional affinity for CDK1/2 [17]: additional affinity; Summary: permeability [18]: Low; Summary: solubility [18]: insoluble; also recorded: Insoluble,; Permeability Caco-2 cells: Permeability, grade in words [22]: (low); Papp [23]: < 0.43 ×10⁻⁶ cm/s
2 | CC(O)COC1CCN(c2ccc(Nc3ncc4ccc(=O)n([C@@H]5CC6CCC5C6)c4n3)cc2)CC1 (stereo partly drawn) [PS006, 8-((2R)-bicyclo[2.2.1]heptan-2-yl)-2-((4-(4-(2-hydroxypropoxy)piperidin-1-yl)phenyl)amino)pyrido[2,3-d]pyrimidin-7(8H)-one] | > 50000 nM | significantly reduced | did not exert any antitumoral effect | did not exert any antitumoral effect | 103 nM | 885 nM | 203 nM | 46.6 nM | 8320 nM | 108 nM | 771 nM | 12.5 nM | 1010 nM | 14700 nM | high affinity for CDK6/2/5/9 | 8000 nM | 1460 nM | 148 nM | 4280 nM | 306 nM | solubility thermodynamic [5]: < 2 µM; efficiency in pRB-deficient versus pRB-wild-type glioblastoma cells [11]: equally efficient; hepatocyte CLint [12]: 75.7 µL/min/1e6 cells; half-life [12]: 18.3 min; microsomal CLint [14]: 185 µL/min/mg; half-life [14]: 7.5 min; affinity for CDK5 [17]: presented affinity; Summary: efflux [18]: permeable/No; Summary: permeability [18]: High; Summary: solubility [18]: insoluble; also recorded: Insoluble,; Summary: stability [18]: highly unstable; Permeability Caco-2 cells: Efflux, grade in words [22]: (poor); Permeability Caco-2 cells: Permeability, grade in words [22]: (high); Papp [23]: 4.62 ×10⁻⁶ cm/s
3 | CC(O)CCN1CCN(c2ccc(Nc3ncc4ccc(=O)n([C@@H]5CC6CCC5C6)c4n3)cc2)CC1 (stereo partly drawn) [PS005, 8-((2R)-bicyclo[2.2.1]heptan-2-yl)-2-((4-(4-(3-hydroxybutyl)piperazin-1-yl)phenyl)amino)pyrido[2,3-d]pyrimidin-7(8H)-one] | 7190 nM |  |  |  | 17.1 nM | 54.1 nM | 13 nM | 2.97 nM | 4530 nM | 16.9 nM | 34.7 nM | < 1.5 nM | 30.8 nM | 6060 nM | bind many other CDK family members | 72.3 nM | 72.5 nM | 10.1 nM | 180 nM | 27.2 nM | 
4 | CC(=O)c1c(C)c2cnc(Nc3ccc(N4CCNCC4)cc3)nc2n([C@@H]2CC3CCC2C3)c1=O (stereo partly drawn) [PS010, 6-acetyl-8-((2R)-bicyclo[2.2.1]heptan-2-yl)-5-methyl-2-((4-(piperazin-1-yl)phenyl)amino)pyrido[2,3-d]pyrimidin-7(8H)-one] | 8140 nM |  |  |  | 16800 nM | 170 nM | 222 nM | 5.48 nM | 22100 nM | 21.2 nM | 113 nM | 1.83 nM | 799 nM | 187 nM |  | 2030 nM | 395 nM | 12 nM | 4210 nM | 700 nM | affinity for CDK5 [17]: presented affinity
5 | O=c1ccc2cnc(Nc3ccc(N4CCNCC4)cc3)nc2n1[C@@H]1CC2CCC1C2 (stereo partly drawn) [PS007, 8-((2R)-bicyclo[2.2.1]heptan-2-yl)-2-((4-(piperazin-1-yl)phenyl)amino)pyrido[2,3-d]pyrimidin-7(8H)-one] | 485 nM |  |  |  | 307 nM | 40.1 nM | 17.1 nM | 2.25 nM | 2750 nM | 9.66 nM | 15.9 nM | < 1.5 nM | 25.8 nM | 5560 nM | bind many other CDK family members | 91.1 nM | 52.3 nM | 7.17 nM | 208 nM | 11.9 nM | 

Reference: patent publication US20230042936A1, “PYRIDO[2,3-d]PYRIMIDIN-7(8H)-ONES AS CDK INHIBITORS” (PROSENESTAR LLC, priority 2020, published 2023)
